# According to patent US11820792B2, “Cancer treatment” (Imperial College Innovations Limited, priority 2017, dated 2023):
# Experiments:
# [1] = systemic administration, clinical trials; cited from earlier work
# DIPG = conditions: 2 children, both died after treatment; cited from earlier work
# UW228 cells = assay: TNFα and cisplatin combination, sulphorodamine B viability; type: cell-based, human; conditions: stably transduced UW228, 1 μM and 5 μM cisplatin
# Method: Cell viability was measured at different time points using sulphorodamine B assay. Stably transduced UW228 were treated with 1 μM and 5 μM cisplatin chemotherapy 48 hrs after seeding the cells. Data are represented as mean±SEM.***P≤0.001.
# [2] = test system: recurrent human malignant glioma; conditions: cited from earlier work
compound,measurement,setting,value
rhIL-15: Recombinant human IL-15 cytokine given systemically in clinical trials,plasma half-life,[1],< 1 h
CC[C@@]1(O)C(=O)OCc2c1cc1n(c2=O)Cc2cc3c(CN(C)C)c(O)ccc3nc2-1 [topotecan],tumour response,DIPG,reduction in tumour size
N.N.[Cl][Pt][Cl] [cisplatin],effect of combination on tmTNFα cytokine gene therapy (cell viability),UW228 cells,increases
IL-4: Interleukin-4 protein injected intratumorally by convection enhanced delivery,neurotoxicity to normal brain,"[2]; histology, any patient",No histological evidence of neurotoxicity
same,patients showing glioma necrosis,"[2]; intratumoral, CED",Six of nine
same,disease free time after the procedure,[2]; one patient,> 18 months
same,systemic toxicity,[2]; treated patients,no drug-related systemic toxicity
